The experiment deals with HepaRG. The experiment can be described thus: LDH release cytotoxicity, % of total lysis control; higher = more cytotoxic. Conditions: 48 h. The procedure, abridged:
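Eight-point half-log series of test chemicals, the highest at 100 µM, were given in duplicate for 48 h to single-lot HepaRG cells on collagen I-coated 96-well plates in serum-free induction medium with 0.5% DMSO. A Tecan Safire read resorufin fluorescence from CytoTox-ONE as a measure of LDH in 50 µL spent medium, with 0.1% Triton X in total lysis wells. Percent cytotoxicity was normalized to on-plate vehicle and total lysis controls and averaged over the duplicates.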
(In general: Release of lactate dehydrogenase indicates damage to the cell membrane.)

± gives the standard deviation of the averaged measurements.

Regarding `CCC(c1ccc(O)cc1)C(CC)c1ccc(O)cc1` (stereo not drawn) [meso-Hexestrol], the LDH release cytotoxicity runs as follows: (0.03162 µM) -1.95 ± 0.96%; (0.1 µM) -2.35 ± 0.15%; (0.3162278 µM) -1.46 ± 0.23%; (1 µM) -1.95 ± 0.05%; (3.16228 µM) -1.99 ± 0.005%; (10 µM) -1.59 ± 0.53%. In addition, the LDH release cytotoxicity is, setting by setting: (31.6228 µM) 0.514 ± 0.37%; (100 µM) 75.4 ± 1.7%.
For `CCCCCCC(C=O)=Cc1ccccc1` [2-(Phenylmethylene)octanal], the LDH release cytotoxicity reads like this: (0.03162 µM) -1.15 ± 0.14%; (0.1 µM) -2.83 ± 0.43%; (0.3162278 µM) -1.02 ± 0.77%; (1 µM) -1.91 ± 0.42%; (3.16228 µM) -1.53 ± 0.26%; (10 µM) -0.899 ± 0.63%. In addition, the LDH release cytotoxicity (31.6228 µM) was -0.688 ± 1.8% and the LDH release cytotoxicity (100 µM) is -0.668 ± 0.88%.
For `Oc1ccccc1Cl` [2-Chlorophenol], the LDH release cytotoxicity (0.03162 µM) was -2.95 ± 2.4%; the LDH release cytotoxicity (0.1 µM) is -4.22 ± 0.094%; the LDH release cytotoxicity (0.3162278 µM) is -4.63 ± 0.13%; the LDH release cytotoxicity (1 µM) is -4.14 ± 0.96%; the LDH release cytotoxicity (3.16228 µM) was -3.68 ± 0.21%; the LDH release cytotoxicity (10 µM) was -3.65 ± 0.22%. Also, the LDH release cytotoxicity reads like this: (31.6228 µM) -2.05 ± 0.13%; (100 µM) 1.5 ± 0.076%.
In the case of `O=C(O)C1(C(=O)Nc2ccc(Cl)cc2Cl)CC1` [Cyclanilide], the LDH release cytotoxicity is 0.835 ± 0.011% (0.03162 µM); -0.444 ± 1.4% (0.1 µM); -0.309 ± 0.12% (0.3162278 µM); -1.03 ± 0.15% (1 µM); -0.632 ± 1.9% (3.16228 µM); 0.531 ± 0.17% (10 µM). Besides, the LDH release cytotoxicity is, setting by setting: (31.6228 µM) 2.66 ± 0.46%; (100 µM) 4.54 ± 2%.
For `Cc1ccc(C)c(O)c1C` [2,3,6-Trimethylphenol], the LDH release cytotoxicity (0.03162 µM) is -2.75 ± 0.2%; the LDH release cytotoxicity (0.1 µM) was -1.45 ± 0.5%; the LDH release cytotoxicity (0.3162278 µM) was -1.53 ± 0.21%; the LDH release cytotoxicity (1 µM) was -1.64 ± 0.019%; the LDH release cytotoxicity (3.16228 µM) was -1.22 ± 0.35%; the LDH release cytotoxicity (10 µM) was -0.829 ± 0.93%. Further, the LDH release cytotoxicity (31.6228 µM) is -0.517 ± 0.35% and the LDH release cytotoxicity (100 µM) stood at 0.375 ± 0.18%.
In the case of `CSC(=O)c1cccc2nnsc12` [Acibenzolar-S-methyl], the LDH release cytotoxicity reads like this: (0.03162 µM) -0.11 ± 0.5%; (0.1 µM) -0.574 ± 0.66%; (0.3162278 µM) -0.682 ± 0.56%; (1 µM) -0.324 ± 0.3%; (3.16228 µM) -0.302 ± 0.16%; (10 µM) -0.414 ± 0.83%. Also, the LDH release cytotoxicity is 0.737 ± 0.21% (31.6228 µM) and 1.4 ± 0.15% (100 µM).
Regarding `CS(=O)(=O)c1ccc(C(CC2CCC(=O)C2)C(=O)Nc2cnccn2)cc1Cl` (configuration not stated) [Piragliatin], the LDH release cytotoxicity is -0.668 ± 0.37% (0.03162 µM); -1.54 ± 1.1% (0.1 µM); -0.661 ± 0.31% (0.3162278 µM); -1.64 ± 1% (1 µM); -1.28 ± 0.2% (3.16228 µM); -0.831 ± 0.26% (10 µM). The LDH release cytotoxicity is, setting by setting: (31.6228 µM) -1.24 ± 0.96%; (100 µM) -0.692 ± 0.1%.
As to `CC(C)(c1cc(Br)c(O)c(Br)c1)c1cc(Br)c(O)c(Br)c1` [3,3',5,5'-Tetrabromobisphenol A], the LDH release cytotoxicity was -1.12 ± 0.1% (0.03162 µM); -1.08 ± 0.92% (0.1 µM); -0.948 ± 1.4% (0.3162278 µM); -1.1 ± 0.047% (1 µM); -0.766 ± 0.24% (3.16228 µM); -0.155 ± 0.087% (10 µM). Moreover, the LDH release cytotoxicity came to 0.933 ± 0.068% (31.6228 µM) and 3.36 ± 1.1% (100 µM).
With `ClC(Cl)(Cl)c1ccccc1` [Benzotrichloride], the LDH release cytotoxicity is, setting by setting: (0.03162 µM) -0.669 ± 1.1%; (0.1 µM) -1.85 ± 0.77%; (0.3162278 µM) -1.72 ± 0.38%; (1 µM) -1.748 ± 0.0065%; (3.16228 µM) -1.92 ± 0.31%; (10 µM) -2.01 ± 0.6%. The LDH release cytotoxicity is -1.18 ± 0.47% (31.6228 µM) and -0.246 ± 0.61% (100 µM).
Turning to `ClC1=C(Cl)C2(Cl)C3C4C=CC(C4)C3C1(Cl)C2(Cl)Cl` (configuration not stated) [Aldrin], the LDH release cytotoxicity is, setting by setting: (0.03162 µM) -1.03 ± 0.13%; (0.1 µM) -1.22 ± 0.11%; (0.3162278 µM) -1.42 ± 0.63%; (1 µM) -2.25 ± 0.36%; (3.16228 µM) -1.19 ± 0.49%; (10 µM) -0.76 ± 1.3%. Also, the LDH release cytotoxicity runs as follows: (31.6228 µM) -1.01 ± 0.71%; (100 µM) 3.93 ± 0.095%.
Take `Cc1oc(-c2ccccc2)nc1CCOc1ccc(CC(Nc2ccccc2C(=O)c2ccccc2)C(=O)O)cc1` (configuration not stated) [Farglitazar]: the LDH release cytotoxicity was -1.27 ± 0.032% (0.03162 µM); -1.73 ± 1.1% (0.1 µM); -0.126 ± 0.81% (0.3162278 µM); -1.05 ± 1.1% (1 µM); -2.03 ± 0.091% (3.16228 µM); -1.81 ± 0.25% (10 µM). Also, the LDH release cytotoxicity (31.6228 µM) was 67.1 ± 9.7% and the LDH release cytotoxicity (100 µM) came to 78.6 ± 1.2%.
Turning to `CC1(C)CCC(=Cc2ccc(Cl)cc2)C1(O)Cn1cncn1` (configuration not stated) [Triticonazole], the LDH release cytotoxicity runs as follows: (0.0314647 µM) -0.271 ± 1.9%; (0.0995 µM) -0.849 ± 0.067%; (0.3146466 µM) -0.205 ± 0.74%; (0.995 µM) -1.22 ± 0.81%; (3.14647 µM) -0.364 ± 0.038%; (9.95 µM) 0.229 ± 0.84%. Moreover, the LDH release cytotoxicity is, setting by setting: (31.4647 µM) 1.76 ± 0.041%; (99.5 µM) 5.55 ± 0.43%.
Take `CCCCCCCCCCCCCCO` [1-Tetradecanol]: the LDH release cytotoxicity reads like this: (0.03162 µM) -1.1 ± 0.46%; (0.1 µM) -2.17 ± 0.9%; (0.3162278 µM) -0.313 ± 1%; (1 µM) -2.29 ± 0.65%; (3.16228 µM) -2.1 ± 0.054%; (10 µM) -1.49 ± 0.62%. Further, the LDH release cytotoxicity was -1.69 ± 0.017% (31.6228 µM) and 6.5 ± 2.2% (100 µM).
As for `COCCOCCO` [Diethylene glycol monomethyl ether], the LDH release cytotoxicity reads like this: (0.03162 µM) -0.428 ± 1.3%; (0.1 µM) -2.12 ± 0.55%; (0.3162278 µM) -0.798 ± 0.33%; (1 µM) -1.35 ± 0.45%; (3.16228 µM) -0.999 ± 0.47%; (10 µM) -1.13 ± 0.19%. The LDH release cytotoxicity worked out at 0.0217 ± 1% (31.6228 µM) and 1.02 ± 0.39% (100 µM).

Source of the values: the supplement of paper PMC7840683.
